What follows are compounds tested against T1, human PAD4 (Homo sapiens, UniProt Q9UM07) (assay: In vitro PAD4 BAEE biochemical assay). Settings: BAEE substrate 3 mM, 5 nM PAD4, 2 mM calcium chloride; geometric mean of multiple experiments.
T1 construct: human PAD4 (NM_012387), A2-P663, was PCR amplified; His-SUMO (N, cleaved yes); made in house; host or cells: E. coli BL21(DE3)
Procedure, shortened: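 Ammonia produced by BAEE deimination (3 mM substrate, 2 h, 25 °C) was read as fluorescent isoindole after o-phthalaldehyde/DTT derivatization, ex 405 nm/em 535 nm. Human PAD4 at 5 nM final, 2 mM calcium, pH 7.6 MOPS; compound preincubated 30 min. IC50s, normalized to BB-Cl-Amidine and DMSO controls, were geometric-mean averaged.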

T1 sequence (Q9UM07 2-663): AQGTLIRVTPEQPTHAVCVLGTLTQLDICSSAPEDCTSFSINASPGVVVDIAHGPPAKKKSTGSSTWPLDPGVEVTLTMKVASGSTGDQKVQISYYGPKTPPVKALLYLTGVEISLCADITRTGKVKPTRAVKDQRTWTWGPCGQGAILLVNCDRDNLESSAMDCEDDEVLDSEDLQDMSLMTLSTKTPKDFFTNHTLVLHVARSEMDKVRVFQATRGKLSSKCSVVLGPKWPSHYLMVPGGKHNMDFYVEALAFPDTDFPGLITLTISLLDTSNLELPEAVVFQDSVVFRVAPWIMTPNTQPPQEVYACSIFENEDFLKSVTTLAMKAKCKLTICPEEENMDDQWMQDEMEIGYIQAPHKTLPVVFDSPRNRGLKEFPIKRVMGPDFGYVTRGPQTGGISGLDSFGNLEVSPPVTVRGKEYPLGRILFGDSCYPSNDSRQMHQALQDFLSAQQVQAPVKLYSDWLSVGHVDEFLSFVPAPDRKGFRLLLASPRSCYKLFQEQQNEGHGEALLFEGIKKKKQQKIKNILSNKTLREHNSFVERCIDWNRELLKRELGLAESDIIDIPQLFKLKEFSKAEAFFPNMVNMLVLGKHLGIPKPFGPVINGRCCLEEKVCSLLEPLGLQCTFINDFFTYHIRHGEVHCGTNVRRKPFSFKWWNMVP

SMILES	IC50 [nM]
COc1cc(C(=O)N2CC[C@@H](OC)[C@@H](N)C2)cc2nc(-c3cc4ccc5nc4n3CC(F)(F)CCC[C@@H]3C[C@H]3C(=O)N(CC3CC3)[C@@H]5C)n(C)c12 [Example 868, (2~{R},5~{R},7~{R})-14-[5-[(3~{S},4~{R})-3-amino-4-methoxy-piperidine-1-carbonyl]-7-methoxy-1-methyl-benzimidazol-2-yl]-3-(cyclopropylmethyl)-11,11-difluoro-2-methyl-3,13,19-triazatetracyclo[11.5.2.0^ {5,7}.0^{16,20}]icosa-1(19), 14,16(20),17-tetraen-4-one]	37
COc1cc(C(=O)N2CC[C@@H](OC)[C@@H](N)C2)cc2nc(-c3cc4ccc5nc4n3CCCCCC[C@](F)(c3ccccn3)C(=O)N[C@@H]5C)n(C)c12 [Example 869, (8~{S},11~{R})-17-[5-[(3~ {S},4~{R})-3-amino-4-methoxy-piperidine-1-carbonyl]-7-methoxy-1-methyl-benzimidazol-2-yl]-8-fluoro-11-methyl-8-(2-pyridyl)-1,10,19-triazatricyclo[10.5.2.0^ {15,18}]nonadeca-12(19), 13,15(18),16-tetraen-9-one]	24
COc1cc(C(=O)N2CC[C@@H](OC)[C@@H](N)C2)cc2nc(-c3cc4ccc5nc4n3CCCCCC[C@@](F)(c3ccccn3)C(=O)N[C@@H]5C)n(C)c12 [Example 870, (8~{R},11~{R})-17-[5-[(3~ {S),4~{R})-3-amino-4-methoxy-piperidine-1-carbonyl]-7-methoxy-1-methyl-benzimidazol-2-yl]-8-fluoro-11-methyl-8-(2-pyridyl)-1,10,19-triazatricyclo[10.5.2.0^{15,18}] nonadeca-12(19), 13,15(18),16-tetraen-9-one]	83
CO[C@@H]1CCN(C(=O)c2cc(F)c3c(c2)nc(-c2cc4ccc5nc4n2CCCCCCC(c2ccccn2)C(=O)N[C@@H]5C)n3C2CC2)C[C@@H]1N (stereo partly shown) [Example 871, (11~{R})-17-[5-[(3~{S), 4~{R})-3-amino-4-methoxy-piperidine-1-carbonyl]-1-cyclopropyl-7-fluoro-benzimidazol-2-yl]-11-methyl-8-(2-pyridyl)-1,10,19-triazatricyclo[10.5.2.0^{15,18}] nonadeca-12(19), 13,15(18),16-tetraen-9-one]	31
CO[C@@H]1CCN(C(=O)c2cc(F)c3c(c2)nc(-c2cc4ccc5nc4n2CCCCCC[C@H](c2cccc(Cl)n2)C(=O)N[C@@H]5C)n3C2CC2)C[C@@H]1N [Example 872, (8~{R},11~{R})-17-[5-[(3~ {S},4~{R})-3-amino-4-methoxy-piperidine-1-carbonyl]-1-cyclopropyl-7-fluoro-benzimidazol-2-yl]-8-(6-chloro-2-pyridyl)-11-methyl-1,10,19-triazatricyclo[10.5.2.0^ {15,18}]nonadeca-12(19), 13,15(18),16-tetraen-9-one]	90
CO[C@@H]1CCN(C(=O)c2cc(F)c3c(c2)nc(-c2cc4ccc5nc4n2CCCCCC[C@@H](c2cccc(Cl)n2)C(=O)N[C@@H]5C)n3C2CC2)C[C@@H]1N [Example 873, (8~{S},11~{R})-17-[5-[(3~{S}, 4~{R})-3-amino-4-methoxy-piperidine-1-carbonyl]-1-cyclopropyl-7-fluoro-benzimidazol-2-yl]-8-(6-chloro-2-pyridyl)-11-methyl-1,10,19-triazatricyclo[10.5.2.0^{15,18}] nonadeca-12(19), 13,15(18),16-tetraen-9-one]	120
[2H]C1([2H])CCCC[C@@H]2C[C@H]2C(=O)N[C@H](C)c2ccc3cc(-c4nc5cc(C(=O)N6CC[C@@H](OC)[C@@H](N)C6)cc(F)c5n4C4CC4)n1c3n2 [Example 874, (2~{R},5~{R},7~{R})-14-[5-[(3~{S},4~{R})-3-amino-4-methoxy-piperidine-1-carbonyl]-1-cyclopropyl-7-fluoro-benzimidazol-2-yl]-12,12-dideuterio-2-methyl-3,13,19-triazatetracyclo[11.5.2.0^ {5,7}.0^{16,20}]icosa-1(19), 14,16(20),17-tetraen-4-one]	29

Reference: US11976083B2, “Inhibitors of peptidylarginine deiminases” (Gilead Sciences, Inc., priority 2020, dated 2024)
